From patent publication US20240424113A1, “CONJUGATES COMPRISING ANTIFUNGALS AND HEAT SHOCK PROTEIN 90 (HSP90) INHIBITORS AND METHODS OF USE THEREOF” (Bright Angel Therapeutics Inc., priority 2021, published 2024)
In brackets after ≈: the same amount, converted by molar mass.

Assays:
[1] = biological target: Hsp90 Nuclear Binding Domain (NBD) (Candida albicans (strain SC5314 / ATCC MYA-2876) (Yeast), UniProt P46598); experiment: Surface Plasmon Resonance (SPR) binding, C. albicans Hsp90 NBD; conditions: biotinylated Hsp90 NBD on streptavidin chip, 25° C., 1:1 binding model
Protocol: (§1) Surface Plasmon Resonance (SPR) Experiments. SPR experiments were performed on a Biacore S200 instrument at 25° C. Biotinylated Hsp90 Nuclear Binding Domain (NBD) was diluted to 40 μg/mL and immobilized on a streptavidin chip (Sensor Chip SA, GE Healthcare) at a density of 2000-2500 response units (RU) on the biosensor surface.
(§2) Recombinant Hsp90 NBDs were expressed and purified as previously described (Whitesell et al., Nat Commun 10, 402 (2019)) with the following modification; Hsp90 NBD expression constructs were modified to encode a C-terminal AviTag for site-specific on-column biotinylation with a BirA biotin-ligase kit (Avidity LLC; BirA-500). Stock protein solutions in 50% glycerol were stored at −20° C. until dilution into relevant buffers. Binding experiments were done in HBS-P (0.01 M HEPES, pH 7.4, 0.15 M NaCl, 0.005% v/v surfactant P20, GE Healthcare) with 2% DMSO at flow rate of 40 μL/min. Test compounds (dilution series) were injected with a 60 s association time and 600 s dissociation time. Resulting sensorgrams were analyzed with a fit to a 1:1 binding model, using BIA evaluation software.

[2] = biological target: Hsp90 Nuclear Binding Domain (NBD) (Aspergillus fumigatus, UniProt P40292); experiment: Surface Plasmon Resonance (SPR) binding, A. fumigatus Hsp90 NBD; conditions: biotinylated Hsp90 NBD on streptavidin chip, 25° C., 1:1 binding model; NB undefined
Protocol: as §1, §2

CaCl2 = experiment: Antifungal sensitivity testing (broth microdilution MIC); assay type: cell-based; conditions: Table 4; 96-well broth microdilution
Protocol: Antifungal Sensitivity Testing. Minimum inhibitory concentrations (MICs) were determined in flat bottom, 96-well plate format using a modified broth microdilution protocol as previously described (Singh et al., PLoS Pathog. 5, e1000532 (2009); LaFayette et al., PLoS Pathog. 6, 79-80 (2010)). Compounds were formulated in dimethyl sulfoxide (DMSO, Sigma-Aldrich Co.); fluconazole was dissolved in sterile ddH2O. Each compound was tested in duplicate in at least two independent experiments. To test for fungicidal activity, cultures from MIC plates were spotted on YPD agar plates using a spotter (Frogger, V&P Scientific, Inc.). Plates were photographed after 24 h of incubation at 30° C.

Sequence of Hsp90 Nuclear Binding Domain (NBD) (Candida albicans (strain SC5314 / ATCC MYA-2876) (Yeast), UniProt P46598) (P46598 1-218 limits assumed): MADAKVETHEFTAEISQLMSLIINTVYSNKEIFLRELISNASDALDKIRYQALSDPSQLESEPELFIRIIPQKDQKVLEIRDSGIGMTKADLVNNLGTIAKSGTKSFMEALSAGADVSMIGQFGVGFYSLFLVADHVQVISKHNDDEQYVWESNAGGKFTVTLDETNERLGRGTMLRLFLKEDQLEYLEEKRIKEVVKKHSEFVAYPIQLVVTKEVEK
Sequence of Hsp90 Nuclear Binding Domain (NBD) (Aspergillus fumigatus, UniProt P40292) (P40292 whole entry, looked up, the tested form may be a part): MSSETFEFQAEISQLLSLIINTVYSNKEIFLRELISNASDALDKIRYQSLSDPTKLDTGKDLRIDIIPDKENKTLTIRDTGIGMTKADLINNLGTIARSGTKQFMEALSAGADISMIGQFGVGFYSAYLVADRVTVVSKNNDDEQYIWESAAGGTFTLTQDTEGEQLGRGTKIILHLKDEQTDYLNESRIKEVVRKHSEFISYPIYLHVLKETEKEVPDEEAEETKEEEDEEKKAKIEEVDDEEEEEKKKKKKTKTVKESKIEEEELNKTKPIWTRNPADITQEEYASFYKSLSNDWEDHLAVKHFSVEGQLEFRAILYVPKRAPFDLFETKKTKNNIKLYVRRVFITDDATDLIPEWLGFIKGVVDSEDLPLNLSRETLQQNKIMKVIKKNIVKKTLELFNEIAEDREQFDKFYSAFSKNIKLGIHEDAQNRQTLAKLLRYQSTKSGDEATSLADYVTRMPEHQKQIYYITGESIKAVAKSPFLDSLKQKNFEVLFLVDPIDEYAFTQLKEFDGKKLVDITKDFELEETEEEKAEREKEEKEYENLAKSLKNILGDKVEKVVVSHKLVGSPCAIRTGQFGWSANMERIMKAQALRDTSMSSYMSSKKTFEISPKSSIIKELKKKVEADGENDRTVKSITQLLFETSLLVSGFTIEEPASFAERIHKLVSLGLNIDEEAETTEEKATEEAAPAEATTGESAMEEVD

| Compound | Kd [1] | Kd [2] | MIC50 (CaCl2) |
| --- | --- | --- | --- |
| Nc1nc2sc(CN[C@H]3[C@@H]4CN(C[C@@](O)(Cn5cncn5)c5ccc(F)cc5F)C[C@@H]43)cc2n(-c2ccc3c(c2)N(c2ccccc2)CCO3)c1=O [Compound I-127, 3-amino-6-((((1R,5S,6S)-3-((R)-2-(2,4-difluorophenyl)-2-hydroxy-3-(1H-1,2,4-triazol-1-yl)propyl)-3-azabicyclo[3.1.0]hexan-6-yl)amino)methyl)-1-(4-phenyl-3,4-dihydro-2H-benzo[b][1,4]oxazin-6-yl)thieno[2,3-b]pyrazin-2(1H)-one] | 699 nM | 1190 nM | 6.25 µM (≈ 4.52 µg/mL) |
| Cc1ccc(-n2c(=O)c(N)nc3sc(C(=O)NC4CCN(C[C@](O)(Cn5cncn5)c5ccc(F)cc5F)CC4)cc32)cc1Oc1ccccc1 [Compound I-25, (S)-3-amino-N-(1-(2-(2,4-difluorophenyl)-2-hydroxy-3-(1H-1,2,4-triazol-1-yl)propyl)piperidin-4-yl)-1-(4-methyl-3-phenoxyphenyl)-2-oxo-1,2-dihydrothieno[2,3-b]pyrazine-6-carboxamide] | 171 nM | 299 nM | 0.5 µM (≈ 0.356 µg/mL) |
| Nc1nc2scc(C(=O)N[C@H]3CCN(CC(O)(Cn4cncn4)c4ccc(F)cc4F)C3)c2n(-c2ccc3c(c2)N(c2ccccc2)CCO3)c1=O (stereo partly drawn) [Compound I-17, 3-amino-N-((3S)-1-(2-(2,4-difluorophenyl)-2-hydroxy-3-(1H-1,2,4-triazol-1-yl)propyl)pyrrolidin-3-yl)-2-oxo-1-(4-phenyl-3,4-dihydro-2H-benzo[b][1,4]oxazin-6-yl)-1,2-dihydrothieno[2,3-b]pyrazine-7-carboxamide] | 2670 nM | 2700 nM | 45 µM (≈ 32.7 µg/mL) |
| Nc1nc2sc(CN[C@H]3[C@@H]4CN(CC(O)(Cn5cncn5)c5ccc(F)cc5F)C[C@@H]43)cc2n(-c2ccc3c(c2)N(c2ccccc2)CCO3)c1=O (stereo partly drawn) [Compound I-81, 3-amino-6-((((1R,5S,6s)-3-(2-(2,4-difluorophenyl)-2-hydroxy-3-(1H-1,2,4-triazol-1-yl)propyl)-3-azabicyclo[3.1.0]hexan-6-yl)amino)methyl)-1-(4-phenyl-3,4-dihydro-2H-benzo[b][1,4]oxazin-6-yl)thieno[2,3-b]pyrazin-2(1H)-one] | 825 nM | 1040 nM | 2.5 µM (≈ 1.81 µg/mL) |
| Nc1nc2sc(C(=O)NC3CCN(CC(O)(Cn4cncn4)c4ccc(F)cc4F)CC3)cc2n(-c2ccc3c(c2)N(c2ccccc2)CCC3)c1=O (stereo not drawn) [Compound I-16, 3-amino-N-(1-(2-(2,4-difluorophenyl)-2-hydroxy-3-(1H-1,2,4-triazol-1-yl)propyl)piperidin-4-yl)-2-oxo-1-(1-phenyl-1,2,3,4-tetrahydroquinolin-7-yl)-1,2-dihydrothieno[2,3-b]pyrazine-6-carboxamide] | 16 nM | 140 nM | 0.6 µM (≈ 0.443 µg/mL) |
| Nc1nc2sc(C(=O)NC3CCN(CCC(O)(Cn4cncn4)c4ccc(F)cc4F)CC3)cc2n(-c2ccc3c(c2)N(c2ccccc2)CCO3)c1=O (stereo not drawn) [Compound I-28, 3-amino-N-(1-(3-(2,4-difluorophenyl)-3-hydroxy-4-(1H-1,2,4-triazol-1-yl)butyl)piperidin-4-yl)-2-oxo-1-(4-phenyl-3,4-dihydro-2H-benzo[b][1,4]oxazin-6-yl)-1,2-dihydrothieno[2,3-b]pyrazine-6-carboxamide] | 13.3 nM | 159 nM | 6 µM (≈ 4.52 µg/mL) |
| Nc1nc2sc(CN[C@H]3CCN(CC(O)(Cn4cncn4)c4ccc(F)cc4F)C3)cc2n(-c2ccc3c(c2)N(c2ccccc2)CCO3)c1=O (stereo partly drawn) [Compound I-71, 3-amino-6-((((3S)-1-(2-(2,4-difluorophenyl)-2-hydroxy-3-(1H-1,2,4-triazol-1-yl)propyl)pyrrolidin-3-yl)amino)methyl)-1-(4-phenyl-3,4-dihydro-2H-benzo[b][1,4]oxazin-6-yl)thieno[2,3-b]pyrazin-2(1H)-one] | 865 nM | 1260 nM | 6.25 µM (≈ 4.45 µg/mL) |
| Nc1nc2sc(CNC3CN(CC(O)(Cn4cncn4)c4ccc(F)cc4F)C3)cc2n(-c2ccc3c(c2)N(c2ccccc2)CCO3)c1=O (stereo not drawn) [Compound I-66, 3-amino-6-(((1-(2-(2,4-difluorophenyl)-2-hydroxy-3-(1H-1,2,4-triazol-1-yl)propyl)azetidin-3-yl)amino)methyl)-1-(4-phenyl-3,4-dihydro-2H-benzo[b][1,4]oxazin-6-yl)thieno[2,3-b]pyrazin-2(1H)-one] | 1060 nM | 1380 nM | 22.5 µM (≈ 15.7 µg/mL) |
| Nc1nc2sc(C(=O)N[C@H]3CCN(CC(O)(Cn4cncn4)c4ccc(F)cc4F)C3)cc2n(-c2ccc3c(c2)N(c2ccccc2)CCO3)c1=O (stereo partly drawn) [Compound I-14, 3-amino-N-((3S)-1-(2-(2,4-difluorophenyl)-2-hydroxy-3-(1H-1,2,4-triazol-1-yl)propyl)pyrrolidin-3-yl)-2-oxo-1-(4-phenyl-3,4-dihydro-2H-benzo[b][1,4]oxazin-6-yl)-1,2-dihydrothieno[2,3-b]pyrazine-6-carboxamide] | 23.4 nM | 146 nM | 25 µM (≈ 18.1 µg/mL) |
| Nc1nc2sc(CN[C@H]3CCCN(CC(O)(Cn4cncn4)c4ccc(F)cc4F)C3)cc2n(-c2ccc3c(c2)N(c2ccccc2)CCO3)c1=O (stereo partly drawn) [Compound I-79, 3-amino-6-((((3S)-1-(2-(2,4-difluorophenyl)-2-hydroxy-3-(1H-1,2,4-triazol-1-yl)propyl)piperidin-3-yl)amino)methyl)-1-(4-phenyl-3,4-dihydro-2H-benzo[b][1,4]oxazin-6-yl)thieno[2,3-b]pyrazin-2(1H)-one] | 877 nM | 1020 nM | 3 µM (≈ 2.18 µg/mL) |
| Nc1nc2sc(C(=O)NCCN3CCN(CC(O)(Cn4cncn4)c4ccc(F)cc4F)CC3)cc2n(-c2ccc3c(c2)N(c2ccccc2)CCO3)c1=O (stereo not drawn) [Compound I-15, 3-amino-N-(2-(4-(2-(2,4-difluorophenyl)-2-hydroxy-3-(1H-1,2,4-triazol-1-yl)propyl)piperazin-1-yl)ethyl)-2-oxo-1-(4-phenyl-3,4-dihydro-2H-benzo[b][1,4]oxazin-6-yl)-1,2-dihydrothieno[2,3-b]pyrazine-6-carboxamide] | 30.4 nM | 188 nM | 2.75 µM (≈ 2.11 µg/mL) |
| Nc1nc2sc(CNC3CCN(C(=O)C[C@@](O)(Cn4cncn4)c4ccc(F)cc4F)CC3)cc2n(-c2ccc3c(c2)N(c2ccccc2)CCO3)c1=O [Compound I-129, (S)-3-amino-6-(((1-(3-(2,4-difluorophenyl)-3-hydroxy-4-(1H-1,2,4-triazol-1-yl)butanoyl)piperidin-4-yl)amino)methyl)-1-(4-phenyl-3,4-dihydro-2H-benzo[b][1,4]oxazin-6-yl)thieno[2,3-b]pyrazin-2(1H)-one] | 546 nM | 698 nM | 7 µM (≈ 5.28 µg/mL) |
| CC1(NCc2cc3c(nc(N)c(=O)n3-c3ccc4c(c3)N(c3ccccc3)CCO4)s2)CCN(CC(O)(Cn2cncn2)c2ccc(F)cc2F)CC1 (stereo not drawn) [Compound I-117, 3-amino-6-(((1-(2-(2,4-difluorophenyl)-2-hydroxy-3-(1H-1,2,4-triazol-1-yl)propyl)-4-methylpiperidin-4-yl)amino)methyl)-1-(4-phenyl-3,4-dihydro-2H-benzo[b][1,4]oxazin-6-yl)thieno[2,3-b]pyrazin-2(1H)-one] | 461 nM | 298 nM | 3 µM (≈ 2.22 µg/mL) |
| Nc1nc2sc(CN[C@@H]3CCN(CC[C@@](O)(Cn4cncn4)c4ccc(F)cc4F)C3)cc2n(-c2ccc3c(c2)N(c2ccccc2)CCO3)c1=O [Compound I-123, 3-amino-6-((((R)-1-((S)-3-(2,4-difluorophenyl)-3-hydroxy-4-(1H-1,2,4-triazol-1-yl)butyl)pyrrolidin-3-yl)amino)methyl)-1-(4-phenyl-3,4-dihydro-2H-benzo[b][1,4]oxazin-6-yl)thieno[2,3-b]pyrazin-2(1H)-one] | 145 nM | 238 nM | 11.5 µM (≈ 8.35 µg/mL) |
| Nc1nc2sc(CN3CCN(CC(O)(Cn4cncn4)c4ccc(F)cc4F)CC3)cc2n(-c2ccc3c(c2)N(c2ccccc2)CCO3)c1=O (stereo not drawn) [Compound I-68, 3-amino-6-((4-(2-(2,4-difluorophenyl)-2-hydroxy-3-(1H-1,2,4-triazol-1-yl)propyl)piperazin-1-yl)methyl)-1-(4-phenyl-3,4-dihydro-2H-benzo[b][1,4]oxazin-6-yl)thieno[2,3-b]pyrazin-2(1H)-one] | 417 nM | 545 nM | 0.75 µM (≈ 0.534 µg/mL) |
| Nc1nc2scc(C(=O)NC3CCN(C[C@](O)(Cn4cncn4)c4ccc(F)cc4F)CC3)c2n(-c2ccc3c(c2)N(c2ccccc2)CCO3)c1=O [Compound I-35, (S)-3-amino-N-(1-(2-(2,4-difluorophenyl)-2-hydroxy-3-(1H-1,2,4-triazol-1-yl)propyl)piperidin-4-yl)-2-oxo-1-(4-phenyl-3,4-dihydro-2H-benzo[b][1,4]oxazin-6-yl)-1,2-dihydrothieno[2,3-b]pyrazine-7-carboxamide] | 1950 nM | 1840 nM | 25 µM (≈ 18.5 µg/mL) |
